Measured values taken from publication PMC3642328, “Ataxia Telangiectasia-Mutated (ATM) Kinase Activity Is Regulated by ATP-driven Conformational Changes in the Mre11/Rad50/Nbs1 (MRN) Complex*^([image sbox.jpg])” (The Journal of Biological Chemistry, 2013).

Tests used:
Format in all cases: biochemical
[1] = target: T1, MRN (nucleotide site of Rad50) (Homo sapiens, UniProt Q92878); assay: ATM kinase assay with analog-sensitive ATM Y2755A; details: N6-furfuryl-ATP as ATM nucleotide; MRN/DNA; AMP-PNP supports MRN activation of ATM
T1 construct: full-length Mre11/Rad50/Nbs1 coexpressed in Sf21 insect cells, purified; with Double-strand break repair protein MRE11; Nibrin
T1 sequence (Q92878 1-1312): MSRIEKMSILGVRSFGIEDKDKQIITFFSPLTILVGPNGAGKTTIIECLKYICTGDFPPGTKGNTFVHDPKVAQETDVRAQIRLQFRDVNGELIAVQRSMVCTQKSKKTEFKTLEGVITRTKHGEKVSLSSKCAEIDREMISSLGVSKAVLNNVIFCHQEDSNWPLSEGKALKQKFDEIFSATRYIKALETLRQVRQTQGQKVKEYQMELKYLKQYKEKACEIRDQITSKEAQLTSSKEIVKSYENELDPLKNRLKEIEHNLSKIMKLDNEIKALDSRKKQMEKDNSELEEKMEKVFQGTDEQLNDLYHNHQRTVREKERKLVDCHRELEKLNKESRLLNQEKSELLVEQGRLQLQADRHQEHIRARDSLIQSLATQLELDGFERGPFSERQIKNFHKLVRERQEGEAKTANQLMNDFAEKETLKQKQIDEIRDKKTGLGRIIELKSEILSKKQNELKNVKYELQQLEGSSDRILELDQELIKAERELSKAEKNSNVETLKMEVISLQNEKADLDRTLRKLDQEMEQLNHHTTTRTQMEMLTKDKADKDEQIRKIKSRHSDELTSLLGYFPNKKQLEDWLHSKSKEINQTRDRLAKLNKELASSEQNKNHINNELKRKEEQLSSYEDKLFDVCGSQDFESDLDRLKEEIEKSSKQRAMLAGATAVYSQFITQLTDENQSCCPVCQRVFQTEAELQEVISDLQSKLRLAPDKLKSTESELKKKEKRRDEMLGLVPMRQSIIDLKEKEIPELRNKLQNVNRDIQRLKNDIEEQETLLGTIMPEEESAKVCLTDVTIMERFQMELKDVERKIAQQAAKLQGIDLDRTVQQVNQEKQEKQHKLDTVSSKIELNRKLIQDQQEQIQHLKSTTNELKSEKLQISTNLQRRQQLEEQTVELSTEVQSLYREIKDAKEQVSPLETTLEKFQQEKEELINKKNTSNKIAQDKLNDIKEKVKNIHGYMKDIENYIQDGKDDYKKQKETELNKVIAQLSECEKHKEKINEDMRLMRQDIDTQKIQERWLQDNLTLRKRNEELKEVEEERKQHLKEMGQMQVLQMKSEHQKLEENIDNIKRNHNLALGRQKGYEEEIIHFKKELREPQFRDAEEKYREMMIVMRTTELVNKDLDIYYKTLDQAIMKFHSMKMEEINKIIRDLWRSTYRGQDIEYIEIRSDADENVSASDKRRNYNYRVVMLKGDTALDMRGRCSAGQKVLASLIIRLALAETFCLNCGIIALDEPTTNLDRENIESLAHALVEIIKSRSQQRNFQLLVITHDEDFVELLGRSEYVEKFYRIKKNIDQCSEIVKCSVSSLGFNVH
T1 sequence (P49959 2-708 partner): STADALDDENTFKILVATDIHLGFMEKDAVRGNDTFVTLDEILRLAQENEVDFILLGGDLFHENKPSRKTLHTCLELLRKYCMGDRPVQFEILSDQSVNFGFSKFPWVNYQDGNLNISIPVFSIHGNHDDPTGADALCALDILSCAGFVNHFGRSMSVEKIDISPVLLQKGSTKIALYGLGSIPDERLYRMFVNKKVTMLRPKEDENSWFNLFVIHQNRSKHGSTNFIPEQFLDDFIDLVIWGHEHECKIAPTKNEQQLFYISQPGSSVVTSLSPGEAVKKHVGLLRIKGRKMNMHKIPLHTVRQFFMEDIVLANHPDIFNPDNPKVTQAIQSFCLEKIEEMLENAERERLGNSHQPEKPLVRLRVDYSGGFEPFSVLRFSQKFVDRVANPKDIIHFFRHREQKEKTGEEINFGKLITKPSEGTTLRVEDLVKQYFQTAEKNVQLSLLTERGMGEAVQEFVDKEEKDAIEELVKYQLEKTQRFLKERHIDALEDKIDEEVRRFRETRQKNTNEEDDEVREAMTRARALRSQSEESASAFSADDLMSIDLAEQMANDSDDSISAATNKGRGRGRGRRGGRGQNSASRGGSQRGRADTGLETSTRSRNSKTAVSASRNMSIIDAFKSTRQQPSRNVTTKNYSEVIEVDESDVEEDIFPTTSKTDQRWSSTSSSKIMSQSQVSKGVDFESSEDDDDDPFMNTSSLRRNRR
T1 sequence (O60934 1-754 partner): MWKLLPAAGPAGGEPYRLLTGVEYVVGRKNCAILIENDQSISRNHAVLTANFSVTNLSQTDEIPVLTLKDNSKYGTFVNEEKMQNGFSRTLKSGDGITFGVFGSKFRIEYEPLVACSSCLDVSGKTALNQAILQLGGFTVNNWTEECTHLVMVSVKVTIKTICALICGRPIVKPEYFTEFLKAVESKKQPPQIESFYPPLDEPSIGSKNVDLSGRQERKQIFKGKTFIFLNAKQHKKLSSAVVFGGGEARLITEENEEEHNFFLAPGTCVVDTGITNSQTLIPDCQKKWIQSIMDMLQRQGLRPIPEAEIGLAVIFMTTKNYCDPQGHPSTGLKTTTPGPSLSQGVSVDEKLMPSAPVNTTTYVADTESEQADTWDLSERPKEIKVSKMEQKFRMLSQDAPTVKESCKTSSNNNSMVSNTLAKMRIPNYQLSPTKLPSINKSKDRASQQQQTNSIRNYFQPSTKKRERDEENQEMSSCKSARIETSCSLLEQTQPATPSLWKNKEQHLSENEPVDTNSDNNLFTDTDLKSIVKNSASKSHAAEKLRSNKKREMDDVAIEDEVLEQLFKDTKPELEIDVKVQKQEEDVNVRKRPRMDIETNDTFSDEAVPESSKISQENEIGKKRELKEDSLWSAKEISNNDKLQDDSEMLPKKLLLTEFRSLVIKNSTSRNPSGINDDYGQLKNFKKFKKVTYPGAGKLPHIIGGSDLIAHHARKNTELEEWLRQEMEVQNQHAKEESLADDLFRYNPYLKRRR

[2] = target: T2, ATM (Homo sapiens, UniProt Q13315, Y2755A); assay: kinase assay, GST-p53 Ser-15 phosphorylation, Western blot; details: H2O2-activated ATM without MRN; analog 1 mM; pH 7.5, 5 mM Mg, 30 C
T2 construct: full-length, Flag-tagged and HA-tagged, transiently expressed in human 293T cells, purified as dimer

[3] = target: T1, MRN (nucleotide site of Rad50); assay: ATM kinase assay, inhibition of MRN/DNA-dependent activation; details: wild-type ATM, ATP present; pH 7.5, 5 mM Mg, 30 C; site (Rad50 ATP pocket) inferred

T2 sequence (Q13315 2-3056 Y2755A): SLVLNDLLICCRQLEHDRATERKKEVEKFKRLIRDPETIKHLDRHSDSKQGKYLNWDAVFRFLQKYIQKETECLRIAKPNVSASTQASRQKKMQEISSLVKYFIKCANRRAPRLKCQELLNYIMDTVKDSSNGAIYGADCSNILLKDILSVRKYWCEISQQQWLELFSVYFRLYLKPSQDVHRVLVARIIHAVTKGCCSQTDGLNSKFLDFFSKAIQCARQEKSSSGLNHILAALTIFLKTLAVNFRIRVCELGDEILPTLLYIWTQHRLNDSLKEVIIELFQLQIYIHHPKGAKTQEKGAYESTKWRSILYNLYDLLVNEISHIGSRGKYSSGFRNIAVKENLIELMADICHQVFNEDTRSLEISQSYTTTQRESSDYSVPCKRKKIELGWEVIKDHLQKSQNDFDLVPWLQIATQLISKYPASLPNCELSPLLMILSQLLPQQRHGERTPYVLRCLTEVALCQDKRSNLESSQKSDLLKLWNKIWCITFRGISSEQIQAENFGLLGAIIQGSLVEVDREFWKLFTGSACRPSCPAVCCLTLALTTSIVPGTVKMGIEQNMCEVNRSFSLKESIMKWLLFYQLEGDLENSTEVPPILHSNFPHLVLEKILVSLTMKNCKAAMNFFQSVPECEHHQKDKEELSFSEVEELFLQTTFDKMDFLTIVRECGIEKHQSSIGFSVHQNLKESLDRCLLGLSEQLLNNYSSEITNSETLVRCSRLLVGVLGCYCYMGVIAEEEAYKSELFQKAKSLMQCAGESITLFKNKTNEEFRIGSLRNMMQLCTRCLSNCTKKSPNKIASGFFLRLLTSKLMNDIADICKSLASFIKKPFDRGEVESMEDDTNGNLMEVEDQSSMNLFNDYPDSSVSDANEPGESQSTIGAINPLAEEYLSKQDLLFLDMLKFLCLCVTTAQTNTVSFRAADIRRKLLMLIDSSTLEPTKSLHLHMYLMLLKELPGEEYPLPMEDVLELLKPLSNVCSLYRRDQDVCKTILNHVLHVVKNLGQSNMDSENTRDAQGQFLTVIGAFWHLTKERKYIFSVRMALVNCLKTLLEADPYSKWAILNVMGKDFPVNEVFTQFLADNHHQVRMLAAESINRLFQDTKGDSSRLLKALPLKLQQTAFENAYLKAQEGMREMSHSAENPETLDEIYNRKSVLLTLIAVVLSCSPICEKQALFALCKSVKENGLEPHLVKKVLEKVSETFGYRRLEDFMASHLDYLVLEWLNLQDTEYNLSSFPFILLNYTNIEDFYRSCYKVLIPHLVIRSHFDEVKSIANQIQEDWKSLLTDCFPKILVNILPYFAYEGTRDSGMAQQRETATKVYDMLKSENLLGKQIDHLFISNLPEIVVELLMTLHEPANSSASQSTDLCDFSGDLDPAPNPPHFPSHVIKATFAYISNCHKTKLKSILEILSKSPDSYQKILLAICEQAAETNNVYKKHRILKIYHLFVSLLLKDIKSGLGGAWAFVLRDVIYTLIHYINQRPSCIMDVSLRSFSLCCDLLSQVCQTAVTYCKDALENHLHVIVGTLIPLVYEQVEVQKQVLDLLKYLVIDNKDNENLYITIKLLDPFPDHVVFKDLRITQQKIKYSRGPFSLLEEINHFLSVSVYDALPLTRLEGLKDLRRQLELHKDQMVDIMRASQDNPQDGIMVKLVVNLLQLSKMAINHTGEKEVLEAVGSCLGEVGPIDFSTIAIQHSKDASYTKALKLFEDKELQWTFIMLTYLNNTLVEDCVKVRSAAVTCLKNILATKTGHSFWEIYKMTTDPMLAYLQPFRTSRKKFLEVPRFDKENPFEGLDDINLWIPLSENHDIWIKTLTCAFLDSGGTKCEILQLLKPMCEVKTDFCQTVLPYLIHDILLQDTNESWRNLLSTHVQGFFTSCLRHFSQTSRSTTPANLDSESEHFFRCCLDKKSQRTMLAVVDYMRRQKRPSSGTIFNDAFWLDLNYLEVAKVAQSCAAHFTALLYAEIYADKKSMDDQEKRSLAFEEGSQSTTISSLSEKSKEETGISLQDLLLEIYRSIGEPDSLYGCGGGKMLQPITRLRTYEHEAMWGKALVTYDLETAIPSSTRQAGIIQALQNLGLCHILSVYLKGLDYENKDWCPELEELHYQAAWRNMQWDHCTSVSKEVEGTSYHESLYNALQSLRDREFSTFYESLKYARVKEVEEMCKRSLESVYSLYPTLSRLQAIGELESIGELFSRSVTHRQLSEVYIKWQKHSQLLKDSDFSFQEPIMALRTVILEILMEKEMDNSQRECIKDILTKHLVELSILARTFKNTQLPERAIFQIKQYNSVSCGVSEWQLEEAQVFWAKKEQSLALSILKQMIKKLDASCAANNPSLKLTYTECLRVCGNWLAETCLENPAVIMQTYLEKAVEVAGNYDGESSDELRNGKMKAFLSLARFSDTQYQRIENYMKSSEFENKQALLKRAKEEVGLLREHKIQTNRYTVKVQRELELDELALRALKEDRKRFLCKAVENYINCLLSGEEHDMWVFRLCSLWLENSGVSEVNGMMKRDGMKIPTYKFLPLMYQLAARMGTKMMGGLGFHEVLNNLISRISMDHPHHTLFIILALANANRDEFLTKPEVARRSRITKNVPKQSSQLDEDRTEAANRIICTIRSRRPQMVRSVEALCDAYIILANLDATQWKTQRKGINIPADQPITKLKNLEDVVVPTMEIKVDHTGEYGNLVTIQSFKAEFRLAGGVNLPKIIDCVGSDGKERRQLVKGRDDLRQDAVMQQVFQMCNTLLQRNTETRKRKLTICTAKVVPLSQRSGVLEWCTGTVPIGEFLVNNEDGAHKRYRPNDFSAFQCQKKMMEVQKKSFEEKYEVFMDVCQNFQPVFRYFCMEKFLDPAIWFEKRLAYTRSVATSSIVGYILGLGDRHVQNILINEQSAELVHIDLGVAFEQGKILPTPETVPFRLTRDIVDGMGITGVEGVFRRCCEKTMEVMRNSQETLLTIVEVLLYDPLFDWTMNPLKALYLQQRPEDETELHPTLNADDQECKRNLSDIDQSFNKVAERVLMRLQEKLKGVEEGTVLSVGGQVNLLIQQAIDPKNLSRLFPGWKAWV

Structure (SMILES)	ATM kinase assay with analog-sensitive ATM Y2755A [1]	kinase assay, GST-p53 Ser-15 phosphorylation, Western blot [2]	ATM kinase assay, inhibition of MRN/DNA-dependent activation [3]
Nc1ncnc2c1ncn2[C@@H]1O[C@H](COP(=O)(O)OP(=O)(O)NP(=O)(O)O)[C@@H](O)[C@H]1O [AMP-PNP, adenosine 5′-(β,γ-imino)triphosphate]	Y2755A ATM phosphorylated p53 in the presence of MRN/DNA, N6-(furfuryl)-ATP, and AMP-PNP		
CCCC(C)Nc1ncnc2c1ncn2[C@@H]1O[C@H](COP(=O)(O)OP(=O)(O)OP(=O)(O)O)[C@@H](O)[C@H]1O (stereo partly drawn) [N6-(1-methylbutyl)-ATP, N6-(1-methylbutyl)adenosine-5′-O-triphosphate]		N6-(1-methylbutyl)-ATP was utilized by the Y2755A mutant ATM	N6-(1-methylbutyl)-ATP inhibited the activation of wild-type ATM by MRN/DNA
